Each block holds one molecule with its values, some of them ahead of it.
System: NCI-H196 complex spheroid growth, percent test/control
Test: Anticancer human tumor NCI-H196 cell line growth inhibition [AhR];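 also: seven days of drug exposure starting three days after plating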;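 as to viability, T/C: 100% = DMSO vehicle control wells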
Settings: for IC50: curve of first compound; for viability, T/C: stronger effect = lower value
Description: Multicellular complex tumor spheroid response to aryl hydrocarbon receptor antagonists in combination with a variety of drugs and investigational agents in selected tumor cell lines
The current study was undertaken to assess response to aryl hydrocarbon receptor antagonists in combination with standard-of-care drugs and investigational agents in solid tumor complex spheroid models. Complex spheroids include a stromal component modeled by human endothelial cells (HUVEC) and fibroblasts modeled by human mesenchymal stem cells (MSCs). The concentration ranges selected for each drug and investigational agent were based upon clinically achievable concentrations if the clinical Cmax of the agent was known.
Compounds. The drugs and investigational agents: BAY 2416964 (NSC825713), GNF351 (NSC835774), CH-223191 (NSC835775), CPI-455 (NSC825282), aza-TdCyd (NSC777586), decitabine (NSC127716), belinostat (NSC758774), entinostat (NSC756642), pevonedistat (NSC761192), tazemetostat (NSC777109), talazoparib (NSC765396), olaparib (NSC753686), selinexor (NSC780203), nedisertib (M3814, NSC802822), bortezomib (NSC756655), venetoclax (NSC766270), doxorubicin (NSC123127), elimusertib (BAY189344, NSC800525), ceralasertib (AZD6738, NSC777638), TAK-243 (NSC785004), alisertib (NSC759677), etoposide (NSC141540), topotecan (NSC609699), eribulin (NSC707389), gemcitabine (NSC613327), carboplatin (NSC241240), cisplatin (NSC119875), and SN-38 (NSC673596) were obtained from the National Cancer Institute (NCI) Developmental Therapeutics Program Chemical Repository (32). The FDA-approved anticancer drug set is available from the Developmental Therapeutics Program at https://dtp.cancer.gov/organization/dscb/obtaining/available plates.htm. […] The stock solutions were prepared in dimethyl sulfoxide (DMSO, Sigma-Aldrich, St. Louis, MO, cat. D2650), except for the platinum compounds which were prepared in saline (Quality Biological, Gaithersburg, MD, cat. 114-055-101), at 800-fold the tested concentration and stored at -70 degrees C prior to their use. All drugs and investigational agents were tested over a range starting from a high concentration at or near the clinical Cmax and decreasing in half-log increments. If the clinical Cmax for an agent had not been determined, the highest concentration tested was 10 microM (Table 1).
Cell Culture. All cells were maintained in an incubator at 37 degrees C and 5% CO2 with 95% humidity. The PDC lines were cultured according to standard operating procedures established by the NCI PDMR (https://pdmr.cancer.gov). Briefly, all PDCs were thawed and cultured in Matrigel-coated flasks prepared with a working solution of 1X Ham's F-12 nutrient mix, without supplementation (Invitrogen, Waltham, MA, cat. 11765054), 100 U/mL penicillin-streptomycin (Invitrogen, cat. 15140122), and 2.5% Matrigel (Corning Inc., Corning, NY, cat. 354248) for the first three passages. All PDCs were cultured in complete DMEM/F-12 media containing advanced DMEM/F-12 (Invitrogen, cat. 12634028), 4.9% defined fetal bovine serum, heat inactivated (HyClone Laboratories Inc., Logan, UT, cat. SH30070.03HI), 389 ng/mL hydrocortisone (Sigma-Aldrich, cat. H4001), 9.7 ng/mL human EGF recombinant protein (Invitrogen, cat. PHG0313), 23.4 microg/mL adenine (Sigma-Aldrich, cat. A2786), 97.3 U/mL penicillin-streptomycin (Invitrogen, cat. 15140122), 1.9 mM L-glutamine (Invitrogen, cat. 25030081), and 9.7 microM Y-27632 dihydrochloride (Tocris Bioscience, Bristol, United Kingdom, cat. 1254). The PDCs were cultured in complete DMEM/F12 media without 10 microM Y-27632 dihydrochloride for at least two passages prior to the screen. The established cell lines NCI-H1341 and […] were cultured in DMEM/F-12, HEPES (Invitrogen, cat. 11330032), 5% defined fetal bovine serum (HyClone Laboratories Inc., cat. SH30070.03), ITS premix universal culture supplement [insulin (5 microg/mL), transferrin (5 microg/mL), and selenious acid (5 ng/mL)] […]

[1] = second compound 0.1 µM, first compound 0.0316 µM
[2] = second compound 0.1 µM, first compound 0.1 µM
[3] = second compound 0.1 µM, first compound 0.316 µM
[4] = second compound 0.1 µM, first compound 1 µM
[5] = second compound 0.1 µM, first compound 3.16 µM
[6] = second compound 0.1 µM, first compound 10 µM
[7] = second compound 0.316 µM, first compound 0.0316 µM
[8] = second compound 0.316 µM, first compound 0.1 µM
[9] = second compound 0.316 µM, first compound 0.316 µM
[10] = second compound 0.316 µM, first compound 1 µM
[11] = second compound 0.316 µM, first compound 3.16 µM
[12] = second compound 0.316 µM, first compound 10 µM
[13] = second compound 1 µM, first compound 0.0316 µM
[14] = second compound 1 µM, first compound 0.1 µM
[15] = second compound 1 µM, first compound 0.316 µM
[16] = second compound 1 µM, first compound 1 µM
[17] = second compound 1 µM, first compound 3.16 µM
[18] = second compound 1 µM, first compound 10 µM
[19] = second compound 3.16 µM, first compound 0.0316 µM
[20] = second compound 3.16 µM, first compound 0.1 µM
[21] = second compound 3.16 µM, first compound 0.316 µM
[22] = second compound 3.16 µM, first compound 1 µM
[23] = second compound 3.16 µM, first compound 3.16 µM
[24] = second compound 3.16 µM, first compound 10 µM
[25] = second compound 10 µM, first compound 0.0316 µM
[26] = second compound 10 µM, first compound 0.1 µM
[27] = second compound 10 µM, first compound 0.316 µM
[28] = second compound 10 µM, first compound 1 µM
[29] = second compound 10 µM, first compound 3.16 µM
[30] = second compound 10 µM, first compound 10 µM

IC50 (second compound 0.1 µM): > 0.3 µM | IC50 (second compound 0.316 µM): > 0.3 µM | IC50 (second compound 1 µM): > 0.3 µM | IC50 (second compound 3.16 µM): > 0.3 µM | IC50 (second compound 10 µM): > 0.3 µM
Structure (SMILES): CCc1c2c(nc3ccc(O)cc13)-c1cc3c(c(=O)n1C2)COC(=O)[C@]3(O)CC + CC(CO)NC(=O)c1cc(-c2ccc(Cl)cc2)nn(-c2cnn(C)c2)c1=O
viability, T/C (second compound 0.1 µM, first compound 0.000949 µM): 98% | viability, T/C (second compound 0.1 µM, first compound 0.003 µM): 104% | viability, T/C (second compound 0.1 µM, first compound 0.00949 µM): 107% | viability, T/C (second compound 0.1 µM, first compound 0.03 µM): 105% | viability, T/C (second compound 0.1 µM, first compound 0.0949 µM): 103% | viability, T/C (second compound 0.1 µM, first compound 0.3 µM): 92.9% | viability, T/C (second compound 0.316 µM, first compound 0.000949 µM): 108% | viability, T/C (second compound 0.316 µM, first compound 0.003 µM): 116% | viability, T/C (second compound 0.316 µM, first compound 0.00949 µM): 113% | viability, T/C (second compound 0.316 µM, first compound 0.03 µM): 113% | viability, T/C (second compound 0.316 µM, first compound 0.0949 µM): 108% | viability, T/C (second compound 0.316 µM, first compound 0.3 µM): 92.2% | viability, T/C (second compound 1 µM, first compound 0.000949 µM): 108% | viability, T/C (second compound 1 µM, first compound 0.003 µM): 115% | viability, T/C (second compound 1 µM, first compound 0.00949 µM): 117% | viability, T/C (second compound 1 µM, first compound 0.03 µM): 98.4% | viability, T/C (second compound 1 µM, first compound 0.0949 µM): 101% | viability, T/C (second compound 1 µM, first compound 0.3 µM): 81.8% | viability, T/C (second compound 3.16 µM, first compound 0.000949 µM): 112% | viability, T/C (second compound 3.16 µM, first compound 0.003 µM): 110% | viability, T/C (second compound 3.16 µM, first compound 0.00949 µM): 105% | viability, T/C (second compound 3.16 µM, first compound 0.03 µM): 104% | viability, T/C (second compound 3.16 µM, first compound 0.0949 µM): 101% | viability, T/C (second compound 3.16 µM, first compound 0.3 µM): 85.3% | viability, T/C (second compound 10 µM, first compound 0.000949 µM): 111% | viability, T/C (second compound 10 µM, first compound 0.003 µM): 111% | viability, T/C (second compound 10 µM, first compound 0.00949 µM): 112% | viability, T/C (second compound 10 µM, first compound 0.03 µM): 107% | viability, T/C (second compound 10 µM, first compound 0.0949 µM): 107% | viability, T/C (second compound 10 µM, first compound 0.3 µM): 87.7%

IC50 (second compound 0.1 µM): > 10 µM | IC50 (second compound 0.316 µM): > 10 µM | IC50 (second compound 1 µM): > 10 µM | IC50 (second compound 3.16 µM): > 10 µM | IC50 (second compound 10 µM): > 10 µM
Structure (SMILES): Nc1ccn(C2OC(CO)C(O)C2(F)F)c(=O)n1 (stereo not given) + CC(CO)NC(=O)c1cc(-c2ccc(Cl)cc2)nn(-c2cnn(C)c2)c1=O
viability, T/C [1]: 94% | viability, T/C [2]: 93.3% | viability, T/C [3]: 67.5% | viability, T/C [4]: 60.2% | viability, T/C [5]: 65.2% | viability, T/C [6]: 63.1% | viability, T/C [7]: 101% | viability, T/C [8]: 98% | viability, T/C [9]: 67.9% | viability, T/C [10]: 65.1% | viability, T/C [11]: 62% | viability, T/C [12]: 63.7% | viability, T/C [13]: 92.9% | viability, T/C [14]: 86.6% | viability, T/C [15]: 75.1% | viability, T/C [16]: 60.7% | viability, T/C [17]: 61.1% | viability, T/C [18]: 69.8% | viability, T/C [19]: 98.3% | viability, T/C [20]: 96.4% | viability, T/C [21]: 69.9% | viability, T/C [22]: 61.3% | viability, T/C [23]: 59.7% | viability, T/C [24]: 70.3% | viability, T/C [25]: 105% | viability, T/C [26]: 101% | viability, T/C [27]: 78% | viability, T/C [28]: 73.1% | viability, T/C [29]: 66.8% | viability, T/C [30]: 73.2%

IC50 (second compound 0.1 µM): > 10 µM | IC50 (second compound 0.316 µM): > 10 µM | IC50 (second compound 1 µM): > 10 µM | IC50 (second compound 3.16 µM): > 10 µM | IC50 (second compound 10 µM): > 10 µM
Structure (SMILES): O=C(c1cc(Cc2n[nH]c(=O)c3ccccc23)ccc1F)N1CCN(C(=O)C2CC2)CC1 + CC(CO)NC(=O)c1cc(-c2ccc(Cl)cc2)nn(-c2cnn(C)c2)c1=O
viability, T/C [1]: 109% | viability, T/C [2]: 114% | viability, T/C [3]: 99.8% | viability, T/C [4]: 93.3% | viability, T/C [5]: 106% | viability, T/C [6]: 96.3% | viability, T/C [7]: 103% | viability, T/C [8]: 109% | viability, T/C [9]: 103% | viability, T/C [10]: 102% | viability, T/C [11]: 105% | viability, T/C [12]: 96.8% | viability, T/C [13]: 105% | viability, T/C [14]: 102% | viability, T/C [15]: 99.7% | viability, T/C [16]: 102% | viability, T/C [17]: 102% | viability, T/C [18]: 98.7% | viability, T/C [19]: 101% | viability, T/C [20]: 103% | viability, T/C [21]: 107% | viability, T/C [22]: 98.9% | viability, T/C [23]: 109% | viability, T/C [24]: 94.9% | viability, T/C [25]: 113% | viability, T/C [26]: 103% | viability, T/C [27]: 109% | viability, T/C [28]: 109% | viability, T/C [29]: 109% | viability, T/C [30]: 102%

— PubChem BioAssay AID1919016 (Molecular Pharmacology Branch, DTP, NCI, 2023)
